In patent US20250186463A1, “ABIRATERONE DECANOATE PRODRUGS AND USE IN THERAPY” (PROPELLA THERAPEUTICS, INC., priority 2022, published 2025):

System: serum testosterone
Assay: Phase 1/2a open-label study of i.m. abiraterone decanoate depot in advanced prostate cancer: serum testosterone
Format: in vivo, human
Conditions: for serum testosterone reduction from baseline: day 168
Experimental: This is a Phase 1/2a, Open-label, Multicenter Study of Intramuscular Abiraterone Decanoate Depot in Patients with Advanced Prostate Cancer.
Formulations and dosing regimen: The formulation used in the study (abiraterone decanoate for intramuscular [i.m.] injection) is a solution formulation of abiraterone decanoate at a concentration of 180 mg/mL and will be provided as a 10 mL vial containing 990 mg of abiraterone decanoate in 5.5 mL of solution. See further details of the formulations in Example 2 (for each milliliter: Abiraterone Decanoate, about 180 mg/mL; Benzyl Alcohol, about 100 mg/mL; Benzyl Benzoate, about 200 mg/mL; and Corn oil, q.s. to 1 mL). Abiraterone Decanoate will be administered as an i.m. injection every 84 days (±3 days). Dose escalation will proceed with a modified Fibonacci sequence. Based on emerging data, intermediate doses may be evaluated.
Study Design: This is a Phase 1/2a, Open-label, Multicenter Study of Intramuscular Abiraterone Decanoate Depot in Patients with Advanced Prostate Cancer. In Phase 1, all patients will receive i.m. Abiraterone Decanoate depot in 84-day treatment cycles combined with daily oral prednisone or dexamethasone. In Phase 2a, patients will be randomized 1:1 and treated with i.m. Abiraterone Decanoate depot in 84-day treatment cycles in combination with dexamethasone (Arm A) or abiraterone acetate daily+prednisone (Arm B). In both Phases, patients will undergo scheduled periodic assessments of serum testosterone levels. Participants may continue treatment until they meet any discontinuation criteria outlined in the protocol.
Phase 1—Dose Escalation: Eligible patients with metastatic castration-sensitive prostate cancer (mCSPC) and patients with metastatic castration-resistant prostate cancer (mCRPC) will be enrolled. The initial dose of Abiraterone Decanoate to be administered is based on findings from completed non-human primate toxicology and pharmacology studies; dose escalation will proceed in a modified Fibonacci sequence. A Safety Review Committee (SRC) will be established to review available cohort safety data, and pharmacokinetic and pharmacodynamic findings (particularly testosterone suppression) to recommend a decision on dose escalation including whether intermediate doses should be explored.
Pharmacodynamic Analysis: Determination of Prostate Specific Antigen (PSA), serum testosterone, dehydroepiandrosterone (DHEA), dehydroepiandrosterone sulfate (DHEA-S), androstenedione, dihydrotestosterone (DHT), progesterone, cortisol, adrenocorticotropic hormone (ACTH), corticosterone, 11-dexoycorticosterone (11-DOC) and 11-deoxycortisol.
Based on the available data, the recommended dose for Phase 2 is about 1260 mg abiraterone decanoate once every three months (12 weeks). All cohorts 1 and 2 in this clinical study were treated with prednisone, 5 mg orally once or twice daily; and all cohorts 3-5 were treated with dexamethasone, 0.5 mg orally once daily. The results shown herein for these cohorts should be understood accordingly.
The median baseline T level, calculated from mean of screening and Day 1 of Cycle 1 pre-dose samples, was 7.45 ng/dL.

## CCCCCCCCCC(=O)O[C@H]1CC[C@@]2(C)C(=CC[C@@H]3[C@@H]2CC[C@]2(C)C(c4cccnc4)=CC[C@@H]32)C1 [abiraterone decanoate]
Cohort 1, 180 mg i.m., Study Day 1 (baseline)
  Serum Testosterone (% CFB): 0%
Cohort 1, 180 mg i.m., Study Day 2
  Serum Testosterone (% CFB): −33%
Cohort 1, 180 mg i.m., Study Day 3
  Serum Testosterone (% CFB): −42%
Cohort 1, 180 mg i.m., Study Day 5
  Serum Testosterone (% CFB): −48%
Cohort 1, 180 mg i.m., Study Day 7
  Serum Testosterone (% CFB): −52%
Cohort 1, 180 mg i.m., Study Day 10
  Serum Testosterone (% CFB): −61%
Cohort 1, 180 mg i.m., Study Day 14
  Serum Testosterone (% CFB): −67%
Cohort 1, 180 mg i.m., Study Day 21
  Serum Testosterone (% CFB): −71%
Cohort 1, 180 mg i.m., Study Day 28
  Serum Testosterone (% CFB): −73%
Cohort 1, 180 mg i.m., Study Day 42
  Serum Testosterone (% CFB): −65%
Cohort 1, 180 mg i.m., Study Day 56
  Serum Testosterone (% CFB): −55%
Cohort 1, 180 mg i.m., Study Day 70
  Serum Testosterone (% CFB): −47%
Cohort 2, 360 mg i.m., Study Day 1 (baseline)
  Serum Testosterone (% CFB): 0%
Cohort 2, 360 mg i.m., Study Day 2
  Serum Testosterone (% CFB): −11%
Cohort 2, 360 mg i.m., Study Day 3
  Serum Testosterone (% CFB): 0%
Cohort 2, 360 mg i.m., Study Day 5
  Serum Testosterone (% CFB): −28%
Cohort 2, 360 mg i.m., Study Day 7
  Serum Testosterone (% CFB): −49%
Cohort 2, 360 mg i.m., Study Day 10
  Serum Testosterone (% CFB): −51%
Cohort 2, 360 mg i.m., Study Day 14
  Serum Testosterone (% CFB): −67%
Cohort 2, 360 mg i.m., Study Day 21
  Serum Testosterone (% CFB): −72%
Cohort 2, 360 mg i.m., Study Day 28
  Serum Testosterone (% CFB): −71%
Cohort 2, 360 mg i.m., Study Day 42
  Serum Testosterone (% CFB): −64%
Cohort 2, 360 mg i.m., Study Day 56
  Serum Testosterone (% CFB): −60%
Cohort 2, 360 mg i.m., Study Day 70
  Serum Testosterone (% CFB): −56%
Cohort 2, 360 mg i.m., Study Day 77
  Serum Testosterone (% CFB): −56%
Cohort 2, 360 mg i.m., Study Day 84
  Serum Testosterone (% CFB): −49%
Cohort 2, 360 mg i.m., Study Day 112
  Serum Testosterone (% CFB): −79%
Cohort 2, 360 mg i.m., Study Day 140
  Serum Testosterone (% CFB): −63%
Cohort 2, 360 mg i.m., Study Day 168
  Serum Testosterone (% CFB): −32%
Cohort 2, 360 mg i.m., Study Day 196
  Serum Testosterone (% CFB): −56%
Cohort 3, 720 mg i.m., Study Day 1 (baseline)
  Serum Testosterone (% CFB): 0%
Cohort 3, 720 mg i.m., Study Day 2
  Serum Testosterone (% CFB): −41%
Cohort 3, 720 mg i.m., Study Day 3
  Serum Testosterone (% CFB): −50%
Cohort 3, 720 mg i.m., Study Day 5
  Serum Testosterone (% CFB): −48%
Cohort 3, 720 mg i.m., Study Day 7
  Serum Testosterone (% CFB): −65%
Cohort 3, 720 mg i.m., Study Day 10
  Serum Testosterone (% CFB): −74%
Cohort 3, 720 mg i.m., Study Day 14
  Serum Testosterone (% CFB): −82%
Cohort 3, 720 mg i.m., Study Day 21
  Serum Testosterone (% CFB): −87%
Cohort 3, 720 mg i.m., Study Day 28
  Serum Testosterone (% CFB): −85%
Cohort 3, 720 mg i.m., Study Day 42
  Serum Testosterone (% CFB): −81%
Cohort 3, 720 mg i.m., Study Day 56
  Serum Testosterone (% CFB): −83%
Cohort 3, 720 mg i.m., Study Day 70
  Serum Testosterone (% CFB): −81%
Cohort 3, 720 mg i.m., Study Day 77
  Serum Testosterone (% CFB): −80%
Cohort 3, 720 mg i.m., Study Day 84
  Serum Testosterone (% CFB): −76%
Cohort 3, 720 mg i.m., Study Day 112
  Serum Testosterone (% CFB): −94%
Cohort 3, 720 mg i.m., Study Day 140
  Serum Testosterone (% CFB): −88%
Cohort 3, 720 mg i.m., Study Day 168
  Serum Testosterone (% CFB): −80%
Cohort 3, 720 mg i.m., Study Day 196
  Serum Testosterone (% CFB): −93%
Cohort 4, 1260 mg i.m., Study Day 1 (baseline)
  Serum Testosterone (% CFB): 0%
Cohort 4, 1260 mg i.m., Study Day 2
  Serum Testosterone (% CFB): −51%
Cohort 4, 1260 mg i.m., Study Day 3
  Serum Testosterone (% CFB): −65%
Cohort 4, 1260 mg i.m., Study Day 5
  Serum Testosterone (% CFB): −69%
Cohort 4, 1260 mg i.m., Study Day 7
  Serum Testosterone (% CFB): −79%
Cohort 4, 1260 mg i.m., Study Day 10
  Serum Testosterone (% CFB): −79%
Cohort 4, 1260 mg i.m., Study Day 14
  Serum Testosterone (% CFB): −80%
Cohort 4, 1260 mg i.m., Study Day 21
  Serum Testosterone (% CFB): −88%
Cohort 4, 1260 mg i.m., Study Day 28
  Serum Testosterone (% CFB): −89%
Cohort 4, 1260 mg i.m., Study Day 42
  Serum Testosterone (% CFB): −90%
Cohort 4, 1260 mg i.m., Study Day 56
  Serum Testosterone (% CFB): −89%
Cohort 4, 1260 mg i.m., Study Day 70
  Serum Testosterone (% CFB): −80%
Cohort 4, 1260 mg i.m., Study Day 77
  Serum Testosterone (% CFB): −87%
Cohort 4, 1260 mg i.m., Study Day 84
  Serum Testosterone (% CFB): −83%
Cohort 4, 1260 mg i.m., Study Day 112
  Serum Testosterone (% CFB): −93%
Cohort 4, 1260 mg i.m., Study Day 140
  Serum Testosterone (% CFB): −89%
Cohort 4, 1260 mg i.m., Study Day 168
  Serum Testosterone (% CFB): −86%
Cohort 4, 1260 mg i.m., Study Day 196
  Serum Testosterone (% CFB): −97%
Cohort 5, 1800 mg i.m., Study Day 1 (baseline)
  Serum Testosterone (% CFB): 0%
Cohort 5, 1800 mg i.m., Study Day 2
  Serum Testosterone (% CFB): −41%
Cohort 5, 1800 mg i.m., Study Day 3
  Serum Testosterone (% CFB): −46%
Cohort 5, 1800 mg i.m., Study Day 5
  Serum Testosterone (% CFB): −62%
Cohort 5, 1800 mg i.m., Study Day 7
  Serum Testosterone (% CFB): −76%
Cohort 5, 1800 mg i.m., Study Day 10
  Serum Testosterone (% CFB): −79%
Cohort 5, 1800 mg i.m., Study Day 14
  Serum Testosterone (% CFB): −85%
Cohort 5, 1800 mg i.m., Study Day 21
  Serum Testosterone (% CFB): −88%
Cohort 5, 1800 mg i.m., Study Day 28
  Serum Testosterone (% CFB): −88%
Cohort 5, 1800 mg i.m., Study Day 42
  Serum Testosterone (% CFB): −93%
Cohort 5, 1800 mg i.m., Study Day 56
  Serum Testosterone (% CFB): −79%
Cohort 5, 1800 mg i.m., Study Day 70
  Serum Testosterone (% CFB): −87%
Cohort 5, 1800 mg i.m., Study Day 77
  Serum Testosterone (% CFB): −88%
Cohort 5, 1800 mg i.m., Study Day 84
  Serum Testosterone (% CFB): −88%
Cohort 5, 1800 mg i.m., Study Day 112
  Serum Testosterone (% CFB): −83%
Cohort 5, 1800 mg i.m., Study Day 140
  Serum Testosterone (% CFB): −96%
Cohort 5, 1800 mg i.m., Study Day 168
  Serum Testosterone (% CFB): −95%
Cohort 5, 1800 mg i.m., Study Day 196
  Serum Testosterone (% CFB): −98%
Patient 1, cohort 1, 180 mg, treatment days 21-56
  decline in testosterone: 59-61%
Patient 2, cohort 2, 360 mg, progressed after Xtandi, FIG. 6
  androgen suppression: sustained androgen suppression
Cohort 3 (720 mg)
  serum testosterone reduction from baseline: 80%
Cohort 4 (1260 mg)
  serum testosterone reduction from baseline: 86%
Cohort 5 (1800 mg)
  serum testosterone reduction from baseline: up to 95%
Patients dosed at 720 mg and above, day 28
  patients with a 90% reduction in testosterone levels compared to baseline or values reduced to ≤1 ng/dL: 13 out of 16
